{"source": "patent US6984500B2", "about": "“Method for detecting microorganisms and detection kit” (priority 2001, dated 2006)", "key": {"[1]": {"tested_on": "A. fumigatus ATCC 26430", "assay": "Colorimetric microplate drug susceptibility test (WST-8 coloring reagent, sucrose YN broth, NaOH sensitizing solution)", "assay_type": "cell-based, Aspergillus Fumigatus", "conditions": "for Drug concentration at or above which almost no color was exhibited visually: visual reading", "experimental": "(§1) Aspergillus Fumigatus ATCC26430 was used.\nThe drug solutions so prepared were pipetted into a plate at 0.02 mL/well and dried to a solid under reduced pressure for 24 hours. A coloring reagent (containing 0.7 mmol/L WST-8, 0.0035 mmol/L 1-methoxy PMS, 0.5 mmol/L potassium ferricyanide, and 0.5 mmol/L of potassium ferrocyanide) was pipetted into each of the wells at 0.02 mL/well and they were again dried to a solid under reduced pressure for 24 hours.\n6.7 g of YN Base (manufactured by Difco) and 20 g of sucrose were dissolved in about 900 mL of purified water, and the pH was adjusted to 7.0 with a 1N aqueous solution of sodium hydroxide. The solution was made up to 1000 mL with purified water and then filter sterilized using a 0.2 μm filter.\nA tester strain was cultured using Sabouraud Dextrose Agar (manufactured by OXOID) at 35° C. for 7 days. 2 mL of sterile physiological saline containing 0.1% Tween 80 was added dropwise onto the culture medium so as to float spores. The above-mentioned physiological saline that had been added dropwise onto the culture medium was recovered and allowed to stand for 3 to 5 minutes, and after removing the precipitate it was mixed using a Vortex mixer to give a spore suspension. Dilution was carried out so that the absorbance at 530 nm was 0.09 to 0.11. 0.1 mL of the spore suspension so prepared was taken using a micro pipette, added to 20 mL of sucrose YN broth, and stirred using a Vortex mixer to give an inoculum. 0.2 mL of the inoculum was pipetted into each of the wells of the microplate for the test described in B, the plate was covered, and culturing was carried out at 35° C.±1° C. for 24 hours. As a blank, sucrose YN broth was added instead of the inoculum.\nAfter 24 hours 0.02 mL of a 1.5 mol/L aqueous solution of sodium hydroxide was added to each well, and 5 minutes after the addition the absorbance at 630 nm was measured.\n2. For ITCZ, the 80% inhibitory concentration (IC80) was determined."}, "[2]": {"tested_on": "A. fumigatus ATCC 26430", "conditions": "reference values of NCCLS M38-P; cited from earlier work"}, "[3]": {"tested_on": "A. fumigatus ATCC 26430", "assay": "NCCLS M-38P turbidity method (0.2 mL micro broth dilution) antifungal susceptibility test", "assay_type": "cell-based", "conditions": "Aspergillus fumigatus, ATCC26430, repeated tests, determination time 46 to 50 hours", "experimental": "as §1\nA comparative example was carried out according to NCCLS M-38P (0.2 mL culture system micro broth dilution method)."}}}
{"compound": "C[C@@H]1[C@H](O)[C@@H](C)/C=C/C=C/C=C/C=C/C=C/C=C/C=C/[C@H](O[C@@H]2O[C@H](C)[C@@H](O)[C@H](N)[C@@H]2O)C[C@@H]2O[C@](O)(C[C@@H](O)C[C@@H](O)[C@H](O)CC[C@@H](O)C[C@@H](O)CC(=O)O[C@H]1C)C[C@H](O)[C@H]2C(=O)O", "note": "[AMPH, Amphotericin B]", "values": [{"measurement": "Drug concentration at or above which almost no color was exhibited visually", "setting": "[1]; 24 hours culture", "value": "≥ 0.5", "unit": "µg/mL"}, {"measurement": "Allowable range (MIC reference values described in NCCLS M38-P)", "setting": "[2]", "value": "0.5 to 2.0", "unit": "µg/mL"}]}
{"compound": "CCC(C)n1ncn(-c2ccc(N3CCN(c4ccc(OCC5COC(Cn6cncn6)(c6ccc(Cl)cc6Cl)O5)cc4)CC3)cc2)c1=O", "note": "(stereo not drawn) [ITCZ, Itraconazole]", "values": [{"measurement": "MIC", "setting": "[3]", "value": "0.12 to 0.25", "unit": "µg/mL"}, {"measurement": "Drug concentration at or below which absorbance at 630 nm increased (FIG. 2)", "setting": "[1]; 24 hours culture, absorbance at 630 nm", "value": "≤ 0.06", "unit": "µg/mL"}, {"measurement": "Drug concentration at or above which almost no color was exhibited visually", "setting": "[1]; 24 hours culture", "value": "≥ 0.12", "unit": "µg/mL"}, {"measurement": "MIC", "setting": "[1]; Aspergillus fumigatus, ATCC26430, 24 h", "value": "0.12 to 0.25", "unit": "µg/mL"}]}
